The values that follow come from patent US20110028566A1, “COMPOSITIONS AND PRODUCTS CONTAINING CYCLOALIPHATIC DIOL ANTIMICROBIAL AGENTS AND METHODS OF USING THE COMPOSITIONS AND PRODUCTS” (EASTMAN CHEMICAL COMPANY, priority 2009, published 2011).

Common to all, as to format: cell-based
The subject of one test is Aspergillus niger. As to the kind of experiment: Test for adequate preservation in skin cream formulation (microorganism counts). The following applies: skin cream emulsion pH 6.75; concentration in label. As for the experimental part: (§1) A test for adequate preservation was carried out in accordance with the European Pharmacopea (6.0) and United States Pharmacopea (5.1). The testing consisted of the inoculation of a skin cream formulation serving as an emulsion substrate. The skin cream formulation having a pH of 6.75 was as follows: […]
(§2) This skin cream was the emulsion substrate, which formed the base for all further experimentation.
(§3) For Examples 3.1 through 3.10, 390.0 g cream were weighed into a 600-ml beaker. The cream was stirred at room temperature while adding the ingredients specified in Table 51. Each sample was stirred for 2 hours, then placed in the refrigerator until inoculated.
(§4) For Examples 3.11 and 3.12, 179.4 g cream were weighed into a 400-ml beaker. The cream was stirred at room temperature while adding the specified ingredients.
(§5) The samples of Examples 3.1 through 3.10 were challenged with specific organisms (see Table 51) to produce a contamination of between 1.0×10^5 cfu/g and 1.0×10^6 cfu/g. The actual inoculation counts resulting from these challenges were immediately determined by diluting in sterile buffered water and (spread plate method) plating for enumeration.
(§6) Challenge organisms were prepared in Mueller-Hinton broth, allowed to grow for 72 hours at 35° C.+/−2° C., centrifuged at 2500 rpm for 5 minutes, and the supernatant broth was removed. The microbial pellet was then re-diluted with sterile buffered water to a turbidity that matched previous 1.0×10^8 cfu/g concentrations of that organism's specific growth curve.
(§7) The test emulsions were maintained within a specific temperature range optimal for the organisms; 35° C.+/2° C. for the bacteria and 22° C.+/−2° C. for the fungi, for the first three days. They were kept at ambient room temperature for the subsequent time periods.
(§8) Subculture samples of approximately 1 gram were taken for counts at 7, 14, and 30 days and incubated under optimal conditions and nutrition for no less than 5 days. Subcultures were diluted 1:2, 1:10, 1:100, . . . , 1:10,000 and plated using the spread plate method onto Plate Count Agar and onto SAB Dextrose Agar for the Candida and Aspergillus species; and incubated as follows: 35° C.+/−2° C. for the Plate Count Agar and 22° C.+/−2° C. for the SAB Dextrose plates of Candida albicans and Aspergillus niger. Negative results were not reported before 7 days incubation, and counts were performed after no less than 5 days incubation. Because of the high viscosity of the test emulsion, at least a 1:2 dilution was required to perform the spread plate subcultures. 0-30 counts represent a 1 to 2 dilution, numbers […] a 1:10 dilution; and the rest represent dilutions of 1:100, 1:1000, or 1:10,000. […]

For a further test, the system named is Pseudomonas aeruginosa. The description is as above. The following applies: skin cream emulsion pH 6.75; concentration in label. How it is done: as §1, §2, §3, §4, §5, §6, §7, §8
For test [1], the system named is trivalent bacterial-fungal inocula. As to the kind of experiment: 15-day biofouling control in B-100 biodiesel:Bushnell-Haas broth, visual turbidity. The following applies: biocide 0 mg/L, 15 days, 22° C., trivalent inoculum 50 uL. Set-up: key: 0 = No Growth; 1 = Slight Growth; 2 = Moderate Growth; 3 = Heavy Growth. How it is done: Antimicrobial efficacy data (Table 54 & Table 55) were obtained for 1,4-CHDM with and without biocide in protection of B-100 biodiesel from microbial growth derived via either biodiesel-acclimated bioslime or trivalent bacterial-fungal inocula after 15-day exposure at 22° C. This testing was via a visual turbidity methodology. Neither micro-liter plates nor automatic plate reader could be used in this experiment due to the inherent biphasic nature of the system. B-100 biodiesel:Bushnell-Haas broth was used, which is a minimal salts medium specially designed for evaluating growth of microorganisms on hydrocarbons. Samples were evaluated visually (i.e., the more the turbidity, the more the growth, the less the turbidity, the less the growth, and no turbidity means no growth).

With `OCC1CCC(CO)CC1` (stereo not shown) [1,4-CHDM, 1,4-cyclohexanedimethanol], the “Antimicrobial activity against Aspergillus niger in skin cream (in words)” value in the test on Aspergillus niger is recorded as “significant activity”. Moreover, the “Antimicrobial activity against Pseudomonas aeruginosa in skin cream (in words)” value in the test with Pseudomonas aeruginosa is given as “significant activity”. Also, the “Growth (visual turbidity rating)” value in test [1] (1,4-CHDM 0.1% (v/v)), in test [1] (1,4-CHDM 0.2% (v/v)), in test [1] (1,4-CHDM 0.3% (v/v)), in test [1] (1,4-CHDM 0.4% (v/v)) and in test [1] (1,4-CHDM 0.5% (v/v)) was 3 each time.
